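All cell lines were grown in 96-well plates and treated with compound for 48 hours. Abbreviation: GI50, concentration required for 50% inhibition of growth. The concentration for full growth arrest is given as TGI.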
Assays:
Test in all cases: NCI tumour cell line growth inhibition, 48 h
NCI-H23 lung = system: NCI-H23 lung
T-47D breast = system: T-47D breast
RPMI-8226 leukemia = system: RPMI-8226 leukemia
HCT-15 colon = system: HCT-15 colon
LOX IMVI melanoma = system: LOX IMVI melanoma
NCI/ADR-RES ovarian = system: NCI/ADR-RES ovarian
DU-145 prostate = system: DU-145 prostate
BT-549 breast = system: BT-549 breast

Row | SMILES | GI50 (NCI-H23 lung) [µM] | TGI (NCI-H23 lung) [µM] | GI50 (T-47D breast) [µM] | TGI (T-47D breast) [µM] | GI50 (RPMI-8226 leukemia) [µM] | TGI (RPMI-8226 leukemia) [µM] | GI50 (HCT-15 colon) [µM] | TGI (HCT-15 colon) [µM] | GI50 (LOX IMVI melanoma) [µM] | TGI (LOX IMVI melanoma) [µM] | GI50 (NCI/ADR-RES ovarian) [µM] | TGI (NCI/ADR-RES ovarian) [µM] | GI50 (DU-145 prostate) [µM] | TGI (DU-145 prostate) [µM] | GI50 (BT-549 breast) [µM] | TGI (BT-549 breast) [µM]
1 | COc1cc(C)c(NC(=O)CN(C)C)cc1Nc1nc(Nc2cccc(F)c2C(N)=O)c2cc[nH]c2n1 | 0.586 | 6.02 | 3.81 | 8.38 | 2.23 | 7.99 | 1.98 | 6.9 | 1.45 | 6.1 | 2.64 | 7.59 | 0.826 | 3.7 | 4.35 | 18.9
2 | Oc1c(CN2CCN(c3ccccc3F)CC2)cc(Br)c2cccnc12 | 1.33 | 25.2 | 0.565 | 60.5 | 0.791 | 15.6 | 0.143 | > 100 | 0.676 | 10.3 | 0.224 | 21.9 | 1.71 | 17.7 | 2.02 | > 100
3 | CCN1CCN(c2ccc(Nc3ncc4ccc5ncn(C(C)C)c5c4n3)nc2)CC1 | 0.211 | 0.85 | 0.199 | 7.3 | < 0.0324 | 1.45 | 0.0636 | 1.16 | 0.116 | 0.556 | 0.292 | 13.9 | 0.126 | 4.3 | 0.218 | 0.687
4 | Cn1c(=O)c2[nH]c(CCCCc3nc4c([nH]3)c(=O)n(C)c(=S)n4C)nc2n(C)c1=S | – | > 100 | – | > 100 | – | > 100 | – | > 100 | – | > 100 | – | > 100 | – | > 100 | – | > 100
5 | Nc1ncnc2c1ncn2C1OC(COC2C(CO)OC(OC(C(=O)O)C(O)C(OP(=O)(O)O)C(O)C(=O)O)C(O)C2O)C(O)C1O (stereo not drawn) | – | > 100 | – | – | – | > 100 | – | > 100 | – | > 100 | – | – | – | – | – | > 100
6 | c1ccc2c3c(ccc2c1)-c1c(ccc2c(NCCCCN4CCCCC4)cccc12)C3 | 1.7 | 3.16 | 4.27 | > 100 | 1.64 | 3.6 | 1.86 | 3.79 | – | – | 1.61 | 2.96 | 1.77 | 3.33 | – | –
7 | Cc1cc2nc(C(Cl)Cl)nc(-c3ccccc3)n2n1 | 3.06 | 10.9 | 4 | 89.1 | 5.04 | 44.3 | 4.11 | 20.8 | 24.4 | > 100 | 3.78 | 29.9 | 1.95 | 5.41 | 17.4 | > 100
8 | O=C(C=Nc1ccccc1C(=O)[O-])c1cccs1.O=C(C=Nc1ccccc1C(=O)[O-])c1cccs1.[Zn+2] | – | > 100 | – | – | – | – | – | > 100 | – | 71.5 | – | – | – | – | – | –
9 | COC1=C(OC)[C@]2(OC)c3c(O)c(OC)c4c(c3O[C@@]23O[C@@H](c2ccccc2)CC=C3C1=O)[C@@H](O)C[C@H](c1ccccc1)O4 | – | – | 0.224 | 0.621 | 0.0714 | 0.597 | 0.157 | 0.34 | 0.157 | 0.377 | 0.688 | 3.39 | 2.23 | 4.56 | 0.394 | 1.21
10 | CC(CN)[C@@H]1CC[C@]2(CO)CC[C@]3(C)[C@H](CC[C@@H]4[C@@]5(C)CCC(N)C(C)(C)[C@@H]5CC[C@]43C)[C@@H]12 (stereo partly drawn) | 1.85 | 3.7 | 1.84 | 3.99 | 2.06 | 4.58 | 1.69 | 3.49 | 1.66 | 3.33 | – | – | 1.8 | 3.3 | – | –
